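Each compound was tested at five concentrations against cells in 96-well plates for 48 hours. TGI: total growth inhibition.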
Tests used:
Experiment in all cases: NCI tumour cell line growth inhibition, 48 h
K-562 leukemia = system: K-562 leukemia
MOLT-4 leukemia = system: MOLT-4 leukemia
RXF 393 renal = system: RXF 393 renal
KM12 colon = system: KM12 colon
HCC-2998 colon = system: HCC-2998 colon
SK-MEL-2 melanoma = system: SK-MEL-2 melanoma
ACHN renal = system: ACHN renal
OVCAR-8 ovarian = system: OVCAR-8 ovarian
M14 melanoma = system: M14 melanoma
T-47D breast = system: T-47D breast
UACC-257 melanoma = system: UACC-257 melanoma
CCRF-CEM leukemia = system: CCRF-CEM leukemia
EKVX NSCLC = system: EKVX NSCLC
NCI-H23 lung = system: NCI-H23 lung
U251 CNS = system: U251 CNS
LOX IMVI melanoma = system: LOX IMVI melanoma
SW-620 colon = system: SW-620 colon
786-0 renal = system: 786-0 renal
NCI-H460 lung = system: NCI-H460 lung
HOP-92 NSCLC = system: HOP-92 NSCLC
MCF7 breast = system: MCF7 breast
RPMI-8226 leukemia = system: RPMI-8226 leukemia
SK-MEL-28 melanoma = system: SK-MEL-28 melanoma
OVCAR-3 ovarian = system: OVCAR-3 ovarian
HOP-62 NSCLC = system: HOP-62 NSCLC
SR leukemia = system: SR leukemia
MDA-MB-435 = system: MDA-MB-435
SNB-19 CNS = system: SNB-19 CNS
A498 renal = system: A498 renal
NCI/ADR-RES ovarian = system: NCI/ADR-RES ovarian
OVCAR-4 ovarian = system: OVCAR-4 ovarian
UACC-62 melanoma = system: UACC-62 melanoma
A549 NSCLC = system: A549 NSCLC
DU-145 prostate = system: DU-145 prostate
OVCAR-5 ovarian = system: OVCAR-5 ovarian
UO-31 renal = system: UO-31 renal
NCI-H226 lung = system: NCI-H226 lung
HL-60(TB) leukemia = system: HL-60(TB) leukemia
CAKI-1 renal = system: CAKI-1 renal
SN12C renal = system: SN12C renal
SF-295 CNS = system: SF-295 CNS
COLO 205 colon = system: COLO 205 colon
TK-10 renal = system: TK-10 renal
HCT-15 colon = system: HCT-15 colon
SK-MEL-5 melanoma = system: SK-MEL-5 melanoma
HCT-116 colon = system: HCT-116 colon
SK-OV-3 ovarian = system: SK-OV-3 ovarian
MDA-N = system: MDA-N
BT-549 breast = system: BT-549 breast
PC-3 prostate = system: PC-3 prostate
SNB-75 CNS = system: SNB-75 CNS

Measured: TGI

COC(=O)C1(C(=O)OC)N=C(C)OC1c1ccoc1 (stereo unspecified)
> 100 µM: all assays above

Reference: PubChem BioAssay (NCI)
